Data set [1] relates to Daudi cells. As to the kind of experiment: [3H] thymidine incorporation into DNA (cell proliferation). Format: cell-based. The settings on record: 16 h. The procedure:
(§1) The effects of 6-MP derivatives on DNA synthesis were assessed by [Methyl-^3H] thymidine incorporation into DNA. All the experiments performed with cells were carried out at least in triplicates. Adhesive cells (N87, Hela HtTA-1 and MDR HT-29) were seeded at 10,000 cells/well (96-well plate) or 60,000 cells/well (24-well plate). Cells in suspension (B-CLL, Daudi, HL-60, Jurkat, MOLT4 and U937cells) were seeded at 15,000 cells/well (96-wells plate) or 100,000 cells/well (24-wells plate). Adhesive cells were grown at 37° C. for 6 h after seeding, before treatment. For the assessment of [Methyl-^3H] thymidine incorporation, cells were treated with various concentrations of 6-MP derivatives at 37° C. for 16 h in the presence of [Methyl-^3H] thymidine (0.8-1.0 μCi/well). Then, plates were frozen (−20° C., 1 h). Adhesive cells were trypsinized before harvesting. Cells in suspension were directly harvested after thawing out the frozen cells.
(§2) The antiproliferative effect of 6-MP and SA-6MP on various cell lines was assessed by determining [^3H] thymidine incorporation into the DNA. 6-MP and SA-6MP at 0-200 μM were applied to Daudi, Hela and N87 cells cultured in 96-well plates in the presence of [^3H] thymidine, as described in Materials and Methods. […] As further shown, the sensitivity to the prodrug is cell type dependent.

In data set [2] the test system is Hela cells. The description is as above. Format: cell-based, human. The settings on record: 16 h. The procedure:
as §1, §2

The subject of data set [3] is Daudi cells. As to the kind of experiment: XTT cell proliferation assay. In kind it is cell-based. Particulars: 16 h. The procedure: (§3) Cell proliferation was determined by the XTT viability assay in 96-well plates, based on the reduction of tetrazolium salt to soluble formazan compounds by living cells. Cells (10,000-15,000 cells/well) were seeded in a 96-well plate. After 16 h incubation with various concentrations of 6-MP, 6-MPR and their S-allylthio-derivatives, 50 μl of XTT/PMS mixture (50 μM PMS, 0.1% XTT in medium) was added onto the cells. After an incubation period of 3-4 h at 37° C. the absorbance of the samples was measured in an ELISA Reader at 450 nm. SDS (1%, 10 μl/well) was added to reference wells before adding the XTT/PMS solution.
(§4) The inhibitory effects of the various prodrugs on Daudi leukemia cell and on monolayer N87 cells were compared. […] XTT was added to the wells for 3 h at 37° C. Cell viability was monitored using an ELISA reader at 450 nm, as described in Materials and Methods.
On the technique in general: Formazan colour is commonly taken as a measure of viable cells.

In data set [4] the test system is N87 cells. As to the kind of experiment: XTT cell proliferation assay. The settings on record: 16 h. Format: cell-based, human. The procedure:
as §3, §4

Data set [5] relates to Hela. Description: Anti-proliferative concentration IC50 (Table 2). Particulars: Homo sapiens, 16 h, tested at 0-200 μM, read-out: Anti-proferative concentration - IC50 (mean ± SE). Format: cell-based, human. The procedure:
as §3
(§5) The results of viability and proliferation were expressed as mean values±SD (n=3-6). For each cell line, the results were analyzed using two-way analysis of variance (ANOVA) followed by Bonferroni's posttest for the factors of the drugs used and their various concentrations, considering p<0.05 as significant. IC50 values (mean±SEM) were obtained from the linear range of the viability curve versus drug concentration (XTT assay).
(§6) In particular, cell in suspension, namely, Daudi, HL-60, U937, Molt-4, Jurkat and B-CLL, were tested at prodrug concentration of 0-100 μM, and monolayer cells, namely, Hela HtTA-1, MDR HT-29 and N87, were tested at prodrug concentration of 0-200 μM. in both cases, cell viability was determined by trypan blue dye exclusion assay. Data are presented in Table 2 hereinbelow for 6MP derivatives-treated for 16 h.

In data set [6] the test system is Jurkat. Description: Anti-proliferative concentration IC50 (Table 2). Format: cell-based, human. The settings on record: Homo sapiens, 16 h, tested at 0-100 μM, read-out: Anti-proferative concentration - IC50 (mean ± SE). The procedure: as §3, §5, §6
In data set [7] the test system is MDR HT-29. Description: Anti-proliferative concentration IC50 (Table 2). Format: cell-based, human. The settings on record: Homo sapiens; MDR HT-29, 16 h, tested at 0-200 μM; read-out: Anti-proferative concentration - IC50 (mean ± SE). The procedure: as §3, §5, §6
Data set [8] relates to U937. As to the kind of experiment: Anti-proliferative concentration IC50 (Table 2). Format: cell-based, human. Particulars: Homo sapiens, U-937; U937, 16 h, tested at 0-100 μM; read-out: Anti-proferative concentration - IC50 (mean ± SE). The procedure:
as §3, §5, §6

The nature of data set [9]: Nonactive 6-MP dimers in the medium of treated cell lines. The text has this: The fact that only a fraction of the thiopurine molecules occurs in its active form explains the need for a high prodrug concentration. The allylthio moiety of the new derivative protects the free SH from such oxidation. Only later, upon entry to the cellular reducing environment is the mixed disulfide SA-6MP cleaved, which renders higher efficiency at lower concentrations. The proposed mechanism for the reaction of SA-6MP with free thiols in the cell is depicted in Scheme 2 hereinafter.

Data set [10] has as its system human peripheral blood mononuclear cells (PBMCs). Particulars: after 4 days of treatment, read-out: IC50, T-cell mitogen-induced blastogenesis; cited from earlier work.
The subject of data set [11] is HL-60. As to the kind of experiment: Anti-proliferative concentration IC50 (Table 2). In kind it is cell-based, human. The settings on record: Homo sapiens; HL-60, 16 h, tested at 0-100 μM; read-out: Anti-proferative concentration - IC50 (mean ± SE). The procedure: as §3, §5, §6
Data set [12] deals with N87. As to the kind of experiment: Anti-proliferative concentration IC50 (Table 2). The settings on record: Homo sapiens; N87, 16 h, tested at 0-200 μM; read-out: Anti-proferative concentration - IC50 (mean ± SE). Format: cell-based, human. The protocol:
as §3, §5, §6

[13] abbreviates: at the same concentrations (0-200 μM).
Setting [14] is: Homo sapiens, [3H] thymidine incorporation, read-out: concentration at which 50% inhibition was observed.

Regarding `Sc1ncnc2nc[nH]c12` [6-MP, 6-Mercaptopurine, reference compound], the “inhibition of proliferation” value in data set [1] (setting [13]) and in data set [2] (setting [13]) was “no inhibition of proliferation” in each case. The “cell proliferation” value is on record as “no significant loss of cell proliferation” in data set [3] (0-100 μM) and “no significant loss of cell proliferation” in data set [4] (N87, 0-100 μM). Besides, in data set [4] (N87, 150 μM), the “proliferation (residual)” value is listed as roughly 80%. Besides, the IC50 in data set [5] is greater than 200 µM; in [6] it was greater than 200 µM; in [7], greater than 200 µM; in data set [8] it was greater than 200 µM; in data set [10], 0.149 ± 0.125 µM. Further, the “nonactive 6-MP dimers (purine-S-S-purine) in the medium” value in [9] is “dimers were indeed found in the medium”.

For `C=CCSSc1ncnc2nc[nH]c12` [SA-6MP, S-allylthio-6-mercaptopurine], the IC50 in data set [1] (setting [14]) is roughly 20 µM; in data set [2] (setting [14]), 110 µM; in data set [11] it was 42 ± 3.8 µM; in [5], 114 ± 12 µM; in data set [6], 54.7 ± 6.3 µM; in data set [7] it was 126 ± 19.1 µM. Also, the IC50 stood at 70.5 ± 8.5 µM in data set [12] and 46.7 ± 4.8 µM in [8]. Moreover, in [3] (50 μM), the residual proliferation is listed as 15-30%. Besides, in [4] (Homo sapiens, N87, 50 μM, read-out: residual proliferation / viability), the viability at 50 µM is 50 to 60%. For the same molecule, the “nonactive 6-MP dimers (purine-S-S-purine) in the medium” value in [9] was “not in the medium”.

Values taken from patent US20100069319A1, “Mercaptopurine derivatives and uses thereof” (priority 2007, published 2010).
